Experimental data published in article PMC3750913 (BMC Microbiology, 2013).
Where two headings read alike, the source gives them in different places.

How the values were obtained:
[1] = system: HCV; assay: Viral penetration assay; assay type: cell-based, hepatitis C virus; settings: for inhibition at 50 µM: Hepatitis C virus, Huh7.5, read-out: Window of antiviral effects: Penetration, inhibitory effect relative to DMSO control
[2] = system: VSV; assay type: cell-based, vesicular stomatitis virus; settings: A549 cells
[3] = system: HCMV; assay: Viral attachment assay, method 2 (virus-specific cellular ELISA); assay type: cell-based, human cytomegalovirus; settings: HCMV MOI 5, ELISA, 4°C; highest inhibitory concentration of the compounds
[4] = system: RSV; assay: Viral penetration assay; assay type: cell-based, respiratory syncytial virus
[5] = system: RSV; assay: Viral inactivation assay; assay type: cell-based, respiratory syncytial virus; settings: for block of infection after pre-incubation of free virus with compound: RSV, CHLA 1 μM, PUG 2 μM, Figure 3
[6] = system: DENV-2; assay: Dose-response antiviral assay (immunohistochemical staining plaque assay); assay type: cell-based, dengue virus type 2; settings: DENV-2, Vero cells
[7] = system: HCMV; assay: Viral attachment assay, method 1 (host cell infection); assay type: cell-based, human cytomegalovirus; settings: Human betaherpesvirus 5, HEL, read-out: Window of antiviral effects: Attachment Method 1, inhibitory effect relative to DMSO control
[8] = system: MV; assay: as above; assay type: cell-based, measles virus; settings: for inhibition of entry (virus attachment): MV, method 1, 4°C, Figure 4, PUG more effective than CHLA
[9] = system: MV; assay: Analysis of drug effects post viral entry; assay type: cell-based, measles virus; settings: for protection, treatment post-infection: MV, Figure 6
[10] = system: DENV-2; assay: Analysis of drug effects post viral entry; assay type: cell-based, dengue virus type 2; settings: DENV-2; Figure 6
[11] = system: HCMV; assay: Dose-response antiviral assay (plaque assay); assay type: cell-based, human cytomegalovirus; settings: for SI (selectivity index, CC50/EC50): HCMV, HEL cells; for EC50: HCMV in HEL cells, co-treatment with viral inoculum, read-out: Antiviral effect EC50
[12] = system: MV; assay: microbe, parasite or virus in culture; assay type: cell-based, measles virus; settings: for EC50: MV in CHO-SLAM cells, co-treatment with viral inoculum, read-out: Antiviral effect EC50; for SI (selectivity index, CC50/EC50): MV, CHO-SLAM cells
[13] = system: MV; assay: Viral cell-to-cell spread assay; assay type: cell-based, measles virus; settings: for effect on viral plaque size (cell-to-cell spread): MV, Figure 7
[14] = system: RSV; assay: Viral attachment assay, method 2 (virus-specific cellular ELISA); assay type: cell-based, respiratory syncytial virus; settings: RSV MOI 5, ELISA, 4°C; highest inhibitory concentration of the compounds
[15] = system: HCV; assay: Viral attachment assay, method 1 (host cell infection); assay type: cell-based, hepatitis C virus; settings: for inhibition of virus attachment: HCV, method 1, 4°C, Figure 4; for inhibition at 50 µM: Hepatitis C virus, Huh7.5, read-out: Window of antiviral effects: Attachment Method 1, inhibitory effect relative to DMSO control
[16] = system: HCV; assay: Analysis of drug effects post viral entry; assay type: cell-based, hepatitis C virus; settings: for protection, treatment post-infection: HCV, Figure 6; for inhibition at 50 µM: Hepatitis C virus, Huh7.5, read-out: Window of antiviral effects: Post-infection, inhibitory effect relative to DMSO control
[17] = system: DENV-2; assay: Viral penetration assay; assay type: cell-based, dengue virus type 2; settings: DENV-2; shift 4°C to 37°C; Figure 4
[18] = system: RSV; assay: Viral cell-to-cell spread assay; assay type: cell-based, respiratory syncytial virus; settings: for effect on viral plaque size (cell-to-cell spread): RSV, Figure 7
[19] = system: MV; assay: Viral penetration assay; assay type: cell-based, measles virus
[20] = system: HCMV; assay: Viral inactivation assay; assay type: cell-based, human cytomegalovirus
[21] = human respiratory syncytial virus, HEp-2, read-out: Window of antiviral effects: Penetration, inhibitory effect relative to DMSO control
[22] = human respiratory syncytial virus, HEp-2, read-out: Window of antiviral effects: Free particle, inhibitory effect relative to DMSO control
[23] = Measles morbillivirus, read-out: Window of antiviral effects: Attachment Method 1, inhibitory effect relative to DMSO control
[24] = Measles morbillivirus, read-out: Window of antiviral effects: Post-infection, inhibitory effect relative to DMSO control
[25] = Measles morbillivirus, read-out: Window of antiviral effects: Cell-to-cell spread, inhibitory effect relative to DMSO control
[26] = human respiratory syncytial virus, HEp-2, read-out: Window of antiviral effects: Cell-to-cell spread, inhibitory effect relative to DMSO control
[27] = Measles morbillivirus, read-out: Window of antiviral effects: Penetration, inhibitory effect relative to DMSO control
[28] = Human betaherpesvirus 5, read-out: inhibition of infection after pre-incubation of free virus with compound

Q: What does the source list for O=C1O[C@H]2[C@@H]3OC(=O)c4cc(O)c(O)c(O)c4-c4c(O)c(O)c5oc(=O)c6c(c(O)c(O)c7oc(=O)c4c5c76)-c4c(cc(O)c(O)c4O)C(=O)OC[C@H]3OC(O)[C@@H]2OC(=O)c2cc(O)c(O)c(O)c2-c2c1cc(O)c(O)c2O (mixture of isomers) [PUG, punicalagin]?
A: protection of the host cell from infection during virus penetration ([1]; HCV, shift 4°C to 37°C, Figure 4): 50 – 90%; inhibition at 50 µM [1]: > 75%; SI (selectivity index, CC50/EC50) [2]: 8.62; Window of antiviral effects: Attachment Method 2, inhibitory effect relative to DMSO control [3]: ++ (++ 50–75%); protection of the host cell from infection during virus penetration ([4]; RSV, shift 4°C to 37°C, Figure 4): 50 – 90%; inhibition at 2 µM [4, 21]: > 75%; block of infection after pre-incubation of free virus with compound [5]: 60 – 80%; inhibition at 2 µM [5, 22]: > 75%; SI (selectivity index, CC50/EC50) [6]: 19.27; inhibition at 40 µM [7]: 50 to 75%; inhibition of entry (virus attachment) [8]: 50 – 80%; inhibition at 50 µM [8, 23]: > 75%; protection, treatment post-infection [9]: 80 – 100%; inhibition at 50 µM [9, 24]: > 75%; protection, treatment post-infection [10]: < 25%; SI (selectivity index, CC50/EC50) [11]: 17.86; EC50 [12]: 25.5 ± 2.94 µM; SI (selectivity index, CC50/EC50) [12]: 11.13; EC50 ([12]; Measles morbillivirus): < 35 µM; effect on viral plaque size (cell-to-cell spread) [13]: near initial size; inhibition at 50 µM [13, 25]: > 75%; Window of antiviral effects: Attachment Method 2, inhibitory effect relative to DMSO control [14]: +++ (+++ > 75%); inhibition of virus attachment [15]: 90 – 100%; inhibition at 50 µM [15]: > 75%; protection, treatment post-infection [16]: 80 – 100%; inhibition at 50 µM [16]: > 75%; protection of the host cell from infection during virus penetration [17]: 50 – 90%; effect on viral plaque size (cell-to-cell spread) [18]: unaffected and expanded further; inhibition at 2 µM [18, 26]: < 25%; protection of the host cell from infection during virus penetration ([19]; MV, shift 4°C to 37°C, Figure 4): 50 – 90%; inhibition at 50 µM [19, 27]: > 75%; inhibition at 40 µM ([20]; Human betaherpesvirus 5, HEL, read-out: Window of antiviral effects: Free particle, inhibitory effect relative to DMSO control): > 75%; inhibition at 40 µM [20, 28]: ~100%

Q: O=C(O)C[C@@H]1C(=O)O[C@H]2[C@@H]3OC(=O)c4cc(O)c(O)c(O)c4-c4c(cc(O)c(O)c4O)C(=O)OC[C@H]2O[C@@H](OC(=O)c2cc(O)c(O)c(O)c2)[C@@H]3OC(=O)c2cc(O)c(O)c3c2[C@H]1[C@H](O)C(=O)O3 [CHLA, chebulagic acid] was tested. Which inhibition at 50 µM [1] did it give?
A: The inhibition at 50 µM was over 75%.

Q: And the “SI (selectivity index, CC50/EC50)” value [2]?
A: Its value is 5.17.

Q: And the “Window of antiviral effects: Attachment Method 2, inhibitory effect relative to DMSO control” value [3]?
A: The value was “+++ (+++ > 75%)”.

Q: What about the inhibition at 1 µM [4, 21] of the same compound?
A: Its inhibition at 1 µM is 50 to 75%.

Q: And the “block of infection after pre-incubation of free virus with compound” value [5]?
A: Its value is 60 – 80%.

Q: What about the inhibition at 1 µM [5, 22] of the same compound?
A: Its inhibition at 1 µM is over 75%.

Q: What about the “SI (selectivity index, CC50/EC50)” value [6] of the same compound?
A: The value was 12.18.

Q: And the “inhibition of entry (virus attachment)” value [8]?
A: The value was 50 – 80%.

Q: And the inhibition at 90 µM [8, 23]?
A: Its inhibition at 90 µM is 50 to 75%.

Q: And the “protection, treatment post-infection” value [9]?
A: The value was 80 – 100%.

Q: And the inhibition at 90 µM [9, 24]?
A: The inhibition at 90 µM was over 75%.

Q: What about the “protection, treatment post-infection” value [10] of the same compound?
A: The value was under 25%.

Q: And the EC50 [11]?
A: Its EC50 is 25.5 ± 1.51 µM.

Q: What about the “SI (selectivity index, CC50/EC50)” value [11] of the same compound?
A: The value was 12.01.

Q: And the EC50 ([11]; Human betaherpesvirus 5, HEL)?
A: Its EC50 is under 35 µM.

Q: And the EC50 [12]?
A: Its EC50 is 34.4 ± 4.35 µM.

Q: And the “SI (selectivity index, CC50/EC50)” value [12]?
A: The value was 10.22.

Q: What about the EC50 ([12]; Measles morbillivirus) of the same compound?
A: The EC50 was under 35 µM.

Q: And the “effect on viral plaque size (cell-to-cell spread)” value [13]?
A: The value was “near initial size”.

Q: What about the inhibition at 90 µM [13, 25] of the same compound?
A: Its inhibition at 90 µM is over 75%.

Q: And the “Window of antiviral effects: Attachment Method 2, inhibitory effect relative to DMSO control” value [14]?
A: The value was “+++ (+++ > 75%)”.

Q: What about the “inhibition of virus attachment” value [15] of the same compound?
A: The value was 90 – 100%.

Q: And the inhibition at 50 µM [15]?
A: Its inhibition at 50 µM is over 75%.

Q: And the “protection, treatment post-infection” value [16]?
A: The value was 80 – 100%.

Q: What about the inhibition at 50 µM [16] of the same compound?
A: The inhibition at 50 µM was over 75%.

Q: And the “effect on viral plaque size (cell-to-cell spread)” value [18]?
A: The value was “unaffected and expanded further”.

Q: And the inhibition at 1 µM [18, 26]?
A: The inhibition at 1 µM was under 25%.

Q: And the inhibition at 90 µM [19, 27]?
A: The inhibition at 90 µM was 50 to 75%.

Q: And the inhibition at 60 µM [20, 28]?
A: The inhibition at 60 µM was about 100%.
